{
  "source": "ChEMBL document CHEMBL5143519",
  "about": "“Exploring disordered loops in DprE1 provides a functional site to combat drug-resistance in Mycobacterium strains” (Eur J Med Chem, 2022)",
  "key": {"[1]": {"system": "Mycobacterium tuberculosis variant bovis", "test": "Antimycobacterial activity against Mycobacterium bovis BCG assessed as inhibition of bacterial growth incubated for 7 days by microplate alamar blue assay", "assay_type": "functional", "details": "168 h, time 7 day"}, "[2]": {"system": "Mycobacterium tuberculosis variant bovis", "test": "Antimycobacterial activity against Mycobacterium bovis BCG assessed as reduction in bacterial colony forming units at 20 times MIC concentration measured after 21 days by time kill assay", "assay_type": "functional", "details": "time 21 day"}, "[3]": {"system": "Mycobacterium tuberculosis variant bovis", "test": "Antimycobacterial activity against Mycobacterium bovis BCG overexpressing DprE1 assessed as inhibition of bacterial growth incubated for 7 days by microplate alamar blue assay", "assay_type": "functional", "details": "168 h, time 7 day"}, "[4]": {"system": "Mycobacterium tuberculosis variant bovis", "test": "Antimycobacterial activity against Mycobacterium bovis BCG overexpressing DprE1 assessed as reduction in bacterial colony forming units at 20 times MIC concentration measured after 21 days by time kill assay", "assay_type": "functional, organism-based", "details": "time 21.0 day"}, "[5]": {"system": "Mycobacterium tuberculosis variant bovis", "test": "Antimycobacterial activity against Mycobacterium bovis BCG assessed as reduction in bacterial colony forming units at 20 times MIC concentration measured after 7 days by time kill assay", "assay_type": "functional, organism-based", "details": "time 7.0 day"}},
  "note": "Calls of active or inactive are those of the source. No cut-off for these calls is given here.",
  "data": [
    {"smiles": "CCOC(=O)NC(=O)c1ccsc1NC(=O)c1nc2ccccc2s1", "values": [
      {"measurement": "MIC", "setting": "[1]", "value": 13.3, "unit": "µM"},
      {"measurement": "Activity", "setting": "[2]", "value": 3, "unit": "log10CFU/ml"},
      {"measurement": "MIC", "setting": "[3]", "value": 66.5, "unit": "µM"}
    ]},
    {"smiles": "CO[C@H]1/C=C/O[C@@]2(C)Oc3c(C)c(O)c4c(O)c(c(/C=N/N5CCN(C)CC5)c(O)c4c3C2=O)NC(=O)/C(C)=C\\C=C\\[C@H](C)[C@H](O)[C@@H](C)[C@@H](O)[C@@H](C)[C@H](OC(C)=O)[C@@H]1C", "note": "[RIFAMPIN]", "values": [
      {"measurement": "MIC", "setting": "[1]", "value": 0.35, "unit": "µM"},
      {"measurement": "Activity", "setting": "[2]", "value": 3, "unit": "log10CFU/ml"},
      {"measurement": "MIC", "setting": "[3]", "value": 0.35, "unit": "µM"}
    ]},
    {"smiles": "O=C(NC(=O)c1ccsc1NC(=O)c1nc2ccccc2s1)OCC1CC1", "values": [
      {"measurement": "Activity", "setting": "[4]", "value": "Active"},
      {"measurement": "MIC", "setting": "[1]", "value": 3.11, "unit": "µM"},
      {"measurement": "Activity", "setting": "[5]", "value": "Active"},
      {"measurement": "Activity", "setting": "[2]", "value": 3, "unit": "log10CFU/ml"},
      {"measurement": "MIC", "setting": "[3]", "value": 12.4, "unit": "µM"}
    ]},
    {"smiles": "O=C(NC(=O)c1ccsc1NC(=O)c1nc2ccccc2s1)OCC1CCC1", "values": [
      {"measurement": "MIC", "setting": "[1]", "value": 12, "unit": "µM"},
      {"measurement": "MIC", "setting": "[3]", "value": 30, "unit": "µM"}
    ]}
  ]
}
